We go through 14 molecules from patent US7847152B2, “Use of tryptophan indole and anthranilate analogs as plant transformation selection agents” (The Board of Trustees of the University of Illinois, priority 2006, dated 2010).

Assay [1] has as its system tobacco shoot producing leaf discs. Nature of the assay: Discrimination between wild type and ASA2 expressing tobacco shoot producing leaf discs. It is filed as cell-based. The protocol: Various concentrations of the different analogs were tested on maize, soy bean, and tobacco that includes growth inhibition test of germination, leaf callus formation test, and other growth inhibition tests (FIGS. 15-38).
(§1) Leaf callus/shoot formation was studied on Tobacco Regeneration Medium that was MS basal medium with 88 μM 6-benzyladenine (BA) and 0.5 μM naphthalene acetic acid (NAA) and various concentrations of different Trp and indole analogs using a total of 30 leaf discs (6 mm each in diameter) from either the untransformed wild type (WT) tobacco or the ASA2 expressing transgenic line transformed with pAST-IV vector (line ASTIV) at 28° C. under fluorescent light as described above. Callus formation and shoot production was visually evaluated after 2, 4 and 6 weeks. Seedling growth inhibition was studied as described herein.

Assay [2] relates to Arabidopsis germinating seedlings. The experiment in a line: Discrimination between wild type and ASA2 expressing Arabidopsis germinating seedlings. It is filed as in vivo. To be noted: Arabidopsis seeds.
The test system of assay [3] is tobacco leaf discs transformed with CaMV35S-ASA2. The experiment in a line: Selection of A. tumefaciens (pC2ASA2) transformed tobacco leaf discs on analog. To be noted: for resistant plants obtained (total of two experiments): 300 μm on TRM, 150 leaf discs for 4MI, 135 leaf discs for 7MT; for optimal concentration for selection of putative transformants: on TRM. It is filed as cell-based, Nicotiana tabacum L. cv. Xanthi. The text has this:
(§2) A vector pC2ASA2 was used, which contains a full length 2,144-bp AS feedback-insensitive α-subunit (ASA2) cDNA, encoding 616 amino acids including a putative transit peptide and 204 bp of 3′non-coding region driven by the CaMV35S promoter. pC2ASA2 was electroporated into Agrobacterium tumefaciens strain EHA105 and then used for the leaf disc transformation. Shoots of tobacco (Nicotiana tabacum L. cv. Xanthi) plants were maintained as in vitro stock cultures in Magenta boxes containing MS basal medium (Murashige and Skoog 1962) with 2 g 1-1 Gelrite® and leaves from these shoots were sources of explants for transformation. The growth conditions were 16-h photoperiod with a temperature of 28° C., florescent lamps providing a photosynthetic photon flux density of 150 μmol m-2 s-1 at the shelf surface. For segregation tests or for seedling growth inhibition tests on different analogs, 50 seeds/plate were surface sterilized with a solution of distilled water-Clorox (80:20; 1.25% Na hypochlorite) for 20 min containing a few drops of Tween 20™ and then rinsed with sterile water before spreading them on MS basal medium plates containing the appropriate selective agent.
Leaf discs (6 mm each in diameter) from 20 leaves of WT tobacco were used for each transformation experiment. After 6 weeks of selection on TRM with either 300 μM 4MI or 300 μM 7MT and 500 mg/l timentin to eliminate A. tumefaciens, the shoots regenerating from the callus were isolated and transferred to the Rooting Medium with analogs to initiate root growth. After root induction, the plantlets were transferred into soil and grown to maturity in a greenhouse. The T1 seeds were plated on either 4MI or 7MT for segregation tests and to obtain homozygous lines.
The ASA2 gene driven by the CaMV 35S promoter was transferred into tobacco leaf discs via the A. tumefaciens-mediated transformation method. Putative transformants were selected on TRM using the optimal concentration (300 μm) of 4MI and 7MT for selection. 31 resistant plants were obtained in two different experiments: 21 one on 4MI from a total of 150 leaf discs (10 resistant plants from 80 leaf discs in experiment 1 and 11 resistant plants from 70 leaf discs in experiment 2) and 10 on 7MT from a total of 135 leaf discs (6 resistant plants from 70 leaf discs in experiment 1 and 4 resistant plants from 65 leaf discs in experiment 2). […] GUS activity was assessed histochemically in PCR-GUS positive lines using leaf pieces confirming the results obtained with the molecular screening. When the transgenic plants were tested for ASA2 gene expression by RT-PCR an 815-bp fragment was amplified from total RNA extracted from young leaves from 15 transgenic lines while no fragment was detected in the WT. […]

Assay [4] relates to tobacco leaf discs bombarded with vector pAST-IV. The experiment in a line: Selection of plastid transformants (pAST-IV) on analog. To be noted: 60 leaf discs bombarded, 6-8 weeks selection. It is filed as cell-based, Nicotiana tabacum cv. Havana. On the procedure:
DNA preparation, precipitation onto gold particles, and bombardment were performed as described previously (Svab & Maliga P, 1993) using 0.6 μm gold particles (Bio-Rad, Hercules, Calif.) as micro projectiles. Any suitable particle bombardment procedure can be used. Briefly, the plasmid containing the marker gene and a gene of interest are coated onto gold or tungsten microparticles. The coated particles are air dried and loaded on to a particle gun for particle bombardment into the desired tissue. Nicotiana tabacum cv. Havana was used in the experiments. Green calli and shoots resistant to either 7-MT or 4-MI were obtained after 6-8 wks of selection on RMOP medium (Svab et al., 1990) and subjected to three additional rounds of selection for the homoplastomic condition.
Six to eight weeks after bombardment, 28 independent resistant shoots/calli were recovered from 60 leaf discs bombarded with vector pAST-IV. The 28 lines selected directly for 4MI or 7MT resistance were tested by the PCR reaction using either primers specific for ASA2 gene (L40 and L 39) or a primer specific to the ASA2 coding region (L40) and a primer that is located in the plastid genome outside the flanking region of the vector (L29). […] A 815 bp (L40-L39) and a 2.1 kb (L40-L29) fragments were reproducibly detected in 5 transgenic of the 28 in dependent lines (3 from 7MT and 2 from 4 MI). […]

The subject of assay [5] is wild-type (WT) tobacco leaf discs. Nature of the assay: Leaf callus/shoot formation inhibition, wild-type tobacco leaf discs. It is filed as cell-based, Nicotiana tabacum. To be noted: for effectiveness as selection agent among the analogs tested: 9 Trp analogs and 7 indole analogs tested; for callus production of the wild-type / shoot formation of WT leaf discs: 300 μm analog. On the procedure: (§3) Leaf callus formation was studied on the nutrient medium described herein using a total of 30 leaf discs at 28° C. under fluorescent light. After 2 weeks, callus formation was measured and after 4 weeks shoot production was recorded.
as §1

In assay [6] the test system is wild-type (WT) tobacco seedlings. Nature of the assay: Seedling growth inhibition test, wild-type tobacco. It is filed as in vivo, Nicotiana tabacum. To be noted: for germination of WT and ASTIV seeds on analog containing medium / WT seedling growth: 75 μm analog; for WT seedling growth: after two weeks.
Description: (§4) The concentrations listed in Table 1 are for illustrative purposes and should not be construed as a limited range. Seedling growth inhibition was studied by placing a total of 45 surface-sterilized seeds of either the wild-type (WT) tobacco (Nicotiana tabacum cv. Petit Havana SR1) or the ASA2 expressing transgenic plants previously obtained (Zhang et al., 2001), on Murashige-Skoog medium supplemented with 3% sucrose, vitamins, 0.8% agar and various concentrations of the different analogs (see Table 1). Seed germination and root formation were measured after 2 weeks, at 28° C. under fluorescent light. The analogs listed in Table 1 were obtained from Sigma-Aldrich (St. Louis, Mo.) or Acros Organics (Morris Plains, N.J.).
as §2

The subject of assay [7] is ASA2 expressing transgenic tobacco seedlings. The experiment in a line: Seedling growth inhibition test, ASA2 expressing transgenic tobacco. To be noted: 75 μm analog; for germination and growth of T2 seed of homozygous ASA2 lines: four lines, pC2ASA2 transformants; for transgenic seedling growth: line ASTIV. It is filed as in vivo, Nicotiana tabacum.
Description: as §4, with “Seed germination and root formation were measured after 2 weeks, at 28° C. under fluorescent light.” left out
as §2
To test for the segregation of the transgene in the T1 generation, seeds of the transgenic lines were germinated on medium containing either 75 4MI or 75 μm 7MT for 21 days. The ratios of resistant/sensitive seedlings were for most of the lines close to the expected 3:1 ratio confirming a single nuclear site of insertion for the 15 lines tested.

Assay [8] concerns ASA2 expressing transgenic tobacco (line ASTIV). The experiment in a line: Leaf callus formation and growth of ASA2 expressing (5MT resistant) tobacco plants. It is filed as cell-based, Nicotiana tabacum. To be noted: 300 μm analog; for callus and shoot formation of ASA2 expressing leaf discs: after four/six weeks.
Description: as §4, §3, §1

“Also recorded” adds a separate entry of the source.

In the case of `Cc1cccc(N)c1C(=O)O` [6MA, 6-methylanthranilate], the “concentration for discriminating between wild type and ASA2 expressing tobacco shoot producing leaf discs” value in assay [1] is recorded as 6MA 70 μM.
Regarding `Cc1cccc2[nH]cc(C[C@H](N)C(=O)O)c12` [4MT, 4-methyltrypthophan], the “concentration for discriminating between wild type and ASA2 expressing Arabidopsis germinating seedlings” value in assay [2] was found to be 4MT 70 μM.
In the case of `Cc1cccc2[nH]ccc12` [4MI, 4-Methylindole], in assay [3], the “resistant plants obtained (total of two experiments)” value was found to be 21 and the “optimal concentration for selection of putative transformants” value is 300 μm. The “PCR-confirmed transgenic lines among 28 independent resistant lines” value in assay [4] was determined as 2. Also, in assay [5], the “effectiveness as selection agent among the analogs tested” value is reported as “most effective”, the “callus production of the wild-type” value was “greater inhibition; also recorded: inhibited” and the “shoot formation of WT leaf discs” value is given as “little shoot formation”. In addition, in assay [5] (listed as 4-MI), the “effectiveness as selection agent among the analogs tested” value is given as “enhanced selection properties”. Moreover, the “concentration for discriminating between wild type and ASA2 expressing tobacco shoot producing leaf discs” value in assay [1] amounted to 4MI 300 μM. Further, in assay [6], the “germination of WT and ASTIV seeds on analog containing medium” value is listed as “germinate almost equally”; the WT seedling growth result was “started to bleach, ceased to grow and eventually died”. Also, in assay [6] (300 μm analog), the “growth of the wild-type seedlings/roots” value is given as “completely inhibited” and the wild-type plant germination entry is “inhibited”. In assay [7], the “germination and growth of T2 seed of homozygous ASA2 lines” value was “all 100 seeds germinated and grew normally”; the transgenic seedling growth result is given as “grew well”; the “transgenic seedling development after six weeks” value was “growing with normal true leaf development”. Moreover, in assay [8], the “growth of the ASA2 expressing (5-MT resistant) plants” value was “not affected”; the “callus and shoot formation of ASA2 expressing leaf discs” value was “formed callus and produced shoots”.
With `Fc1ccc2[nH]ccc2c1` [5FI, 5-Fluoroindole], the “concentration for discriminating between wild type and ASA2 expressing Arabidopsis germinating seedlings” value in assay [2] is 5FI 20 μM.
In the case of `Cc1ccc(N)c(C(=O)O)c1` [5MA, 5-methylanthranilate], in assay [1], the “concentration for discriminating between wild type and ASA2 expressing tobacco shoot producing leaf discs” value is on record as 5MA 800 μM.
Regarding `Cc1cccc2c(CC(N)C(=O)O)c[nH]c12` (racemic) [7MT, 7-methyl-DL-tryptophan], in assay [3], the “resistant plants obtained (total of two experiments)” value is recorded as 10 and the “optimal concentration for selection of putative transformants” value came to 300 μm. For the same molecule, the “PCR-confirmed transgenic lines among 28 independent resistant lines” value in assay [4] worked out at 3. Also, in assay [5], the “effectiveness as selection agent among the analogs tested” value is “most effective”, the “callus production of the wild-type” value is “greater inhibition; also recorded: inhibited” and the “shoot formation of WT leaf discs” value is given as “little shoot formation”. Also, in assay [5] (listed as 7-MT), the “effectiveness as selection agent among the analogs tested” value is reported as “enhanced selection properties”. The “concentration for discriminating between wild type and ASA2 expressing tobacco shoot producing leaf discs” value in assay [1] came out at 7MT 400 μM. Also, in assay [6], the “germination of WT and ASTIV seeds on analog containing medium” value is given as “germinate almost equally”; the WT seedling growth result is “started to bleach, ceased to grow and eventually died”. The “growth of the wild-type seedlings/roots” value in assay [6] (300 μm analog) is listed as “completely inhibited”. Besides, the “concentration for discriminating between wild type and ASA2 expressing Arabidopsis germinating seedlings” value in assay [2] was determined as 7MT 300 μM. Also, in assay [7], the “germination and growth of T2 seed of homozygous ASA2 lines” value is “all 100 seeds germinated and grew normally”; the transgenic seedling growth entry is “grew well”; the “transgenic seedling development after six weeks” value is “growing with normal true leaf development”. For the same molecule, in assay [8], the “growth of the ASA2 expressing (5-MT resistant) plants” value was “not affected”; the “callus and shoot formation of ASA2 expressing leaf discs” value is “formed callus and produced shoots”.
For `CC(=O)c1c[nH]c2ccccc12` [3-acetylI], the “concentration for discriminating between wild type and ASA2 expressing tobacco shoot producing leaf discs” value in assay [1] was 3-acetylI 500 μM.
Consider `C[C@](N)(Cc1c[nH]c2ccccc12)C(=O)O` [α-MT, α- methyltrypthophan], for which, in assay [2], the “concentration for discriminating between wild type and ASA2 expressing Arabidopsis germinating seedlings” value is on record as “α-MT 20 μM”.
In the case of `COc1ccc2[nH]ccc2c1` [5MI, 5-Methoxyindole], the “concentration for discriminating between wild type and ASA2 expressing tobacco shoot producing leaf discs” value in assay [1] is on record as 5MI 1000 μM.
Same read-out and setting: next, `COc1cccc2cc[nH]c12` [7MI, 7-Methoxyindole]: 7MI 1000 μM.
Take `Fc1cccc2[nH]ccc12` [4FI, 4-Fluoroindole]: the “concentration for discriminating between wild type and ASA2 expressing Arabidopsis germinating seedlings” value in assay [2] amounted to 4FI 70 μM.
As to `Cc1ccc2[nH]cc(C[C@H](N)C(=O)O)c2c1` [5MT, 5-methyltrypthophan], the “concentration for discriminating between wild type and ASA2 expressing Arabidopsis germinating seedlings” value in assay [2] is given as 5MT 200 μM.
As for `Nc1ccc(F)cc1C(=O)O` [5FA], the “concentration for discriminating between wild type and ASA2 expressing tobacco shoot producing leaf discs” value in assay [1] came out at 5FA 150 μM.
Take `N[C@@H](Cc1c[nH]c2ccc(O)cc12)C(=O)O` [5HT, 5-hydroxyl-L-tryptophan]: the “concentration for discriminating between wild type and ASA2 expressing Arabidopsis germinating seedlings” value in assay [2] worked out at 5HT 200 μM.
